Data on two compounds can be found in article PMC8091729 (Bioorganic & Medicinal Chemistry Letters, 2021).

One test concerns SARS-CoV-2. The experiment in a line: Image-based antiviral assay. Type of test: cell-based. To be noted: CC50/EC50.
The next test concerns COVID-19. Conditions: patients with COVID-19; cited from earlier work.

On to `O=C(Cn1c2ccccc2n2c(=O)cc(-c3ccc(Cl)cc3)nc12)Nc1ccc(F)cc1F` [Compound 7], for which the selectivity index result in the test on SARS-CoV-2 was “more than 10”.
Turning to `CCC(CC)COC(=O)[C@H](C)N[P@](=O)(OC[C@H]1O[C@@](C#N)(c2ccc3c(N)ncnn23)[C@H](O)[C@@H]1O)Oc1ccccc1` [Remdesivir], the “benefit in clinical trials” value in the test on COVID-19 is recorded as 68%.
